Test results as given in a melting point compilation (Tetko et al.; mined from patent text by program, amines drawn as free bases though some values may be those of a salt).

| SMILES | melting point [°C] |
| --- | --- |
| CCOC(=O)C(=CNc1ccc(CC)nc1)C(=O)OCC | 55 to 57 |
| CC(=O)SCCS(=O)(=O)N1CCC[C@H]1C(=O)O | 63 to 67 |
| CCn1c(=O)c2c(nc(/C=C/c3ccc(O)cc3)n2C)n(CC)c1=O | > 270 |
| CNc1ccc2cnc(S(C)=O)nc2n1 (stereo not given) | 185 |
| COc1ccccc1C(=O)C=CC(=O)O | 146 to 148 |
| CS(=O)(=O)N[C@@H]1CCCC[C@H]1Nc1nc(Nc2ccc3c(c2)CCC(=O)CC3)ncc1Cl | 146 to 153 |
| Oc1ccccc1NCCCCCCBr | 124 to 126 |
| CC12CCC(O)CC1CCC1C2CCC2(C)C(C=NNC(N)=O)CCC12O (stereo not given) | 222 to 226 |
| Cc1cc(Cl)c(OCCO[Si](C)(C)C(C)(C)C)cc1Nc1nnc2n1[C@H](c1ccc(F)cc1)COC2 | 141 to 142 |
| Cn1c(C(F)(F)F)cc(=O)n(-c2c(F)cc(Cl)c3c2OC(C)(C)C3O)c1=O (stereo not given) | 82 to 83 |
| N#Cc1cc(Br)c(C(=O)CCl)s1 | 126 to 128 |
| CCC(CC)O[C@@H]1C=C(C(=O)OC)C[C@H](CC(O)CN=[N+]=[N-])[C@H]1NC(C)=O (stereo not given in full) | 92 to 93 |
| Cc1nc(CS(C)(=O)=O)nc(OC(=O)NN2CC(C)OC(C)C2)c1C (stereo not given) | 103 |
| CCOC(=O)C(C)(C)CCCCOc1cc(C)c(N)c(C)c1 | 32 to 34 |
| Cc1noc(NS(=O)(=O)c2nccs2)c1Br | 175 to 177 |
| CCOC(=O)NS(=O)(=O)c1ccc2c(c1)CCO2 | 118 to 119 |
| C#CCN1CC(=O)N(c2c(C)cccc2C)C1=S | 117 to 121 |
| C=CCC(NC(=O)c1ccc(OC)cc1)C(=O)OCC (stereo not given) | 76 to 78 |
| CCCc1cc(Cl)c2oc(Cc3ccc(O)cc3)c(C)c2c1O | 142 to 143 |
| CS(=O)(=O)Oc1cc(OS(C)(=O)=O)cc(OS(C)(=O)=O)c1 | 145 to 149 |
| CCOC(=O)C(=O)Nc1ccc(Oc2ccc(NC(=O)C(=O)OCC)cc2)cc1 | 150 to 158 |

Results, then the compound that gave them:

| melting point [°C] | SMILES |
| --- | --- |
| 210 to 212 | O=C(Nc1ccc2nc(CN3CCCC3)ccc2c1)c1ccc(N2CCCCC2=O)cc1 |
| 74 to 75 | Cc1ccc(CCOc2cccc3c(Cl)ccnc23)cc1 |
| 125 to 128 | COCc1cc([N+](=O)[O-])ccc1N1C(=O)c2ccc(Cl)cc2C1=O |
| 170 | Oc1ccc(Cl)cc1C(O)(c1ccccc1)C1CCCCC1 (stereo not given) |
| 189 to 192 | O=c1c(NCCCN(Cc2cccs2)c2ccccn2)c(NCc2ccncc2)c1=O |
| 122 to 123 | CCN(C)c1nc(-c2ccc(OC)cc2)nc2sc(C#N)c(C)c12 |
| 218 to 220 | Cn1cc(-c2ccccc2)c(=O)c(S(=O)(=O)c2ccccc2)c1 |
| 146 to 148 | CS(=O)(=O)Cc1cc(C(O)CNCCCCCCNCC(O)c2ccc(OCc3ccccc3)c(CS(C)(=O)=O)c2)ccc1OCc1ccccc1 (stereo not given) |
| 204 to 207 | CC(CC(=O)Nc1c(Cl)ccc2nc(N3CCC(N)C3)ccc12)c1ccccc1 (stereo not given) |
| 136 to 138 | CN(C)c1nc2c(ccc3ccccc32)s1 |
| 204 to 206 | Fc1ccccc1Cn1cnc2c(Nn3cccc3)ncnc21 |
| 176 to 177 | COCCNC(=O)c1cccc(-c2nc(=O)c3ccccc3s2)n1 |
| 164 to 165 | CC(C)(CNc1ccnc2cc(Cl)ccc12)NCc1ccc(F)c(Cl)c1 |
| 165 to 166 | CC(C)(C)OC(=O)Nc1ccc(-c2noc(COc3ccc(F)c(C(N)=O)c3F)n2)cc1 |
| 170 to 171 | CC1=C(Cc2ccc(-c3ccc(N(C)C)cc3)cc2)C(=O)c2ccccc2C1=O |
| 109 to 110 | CC(C)COC(=O)C1(c2onc(-c3ccc(O)cc3)c2-c2ccccc2)CC1 |
| 172 to 174 | NC(=O)c1cc(CN2C(=O)C3(COc4cc5c(cc43)OCO5)c3ccccc32)oc1C(F)(F)F (stereo not given) |
| 133 to 134 | Oc1c2c(nn1-c1ccccn1)CCc1cc(-c3ccccc3)ccc1-2 |
| 213 to 215 | Nc1ccc(Oc2cc(C34CCCCC3C(=O)NC4=O)c(F)cc2Cl)cc1 (stereo not given) |
| 201 to 205 | N#Cc1cnc2cc3c(cc2c1Nc1cccc(Br)c1)OCO3 |
| 195 to 198 | NC(=O)c1nc(-c2ccc(Cl)cc2Cl)c(-c2ccc(Cl)cc2)s1 |
| 179 to 180 | COc1ccc(CS(=O)(=O)c2cc3ccc(OC)cc3oc2=O)cc1 |
| 69.5 to 70.5 | CCc1coc2cc(OCc3ccccc3)ccc12 |
| 120 to 121 | CC(OCc1ccc(Cl)c2ccccc12)(C(=O)O)C(F)(F)F (stereo not given) |
| 106 to 116 | COc1cc2c(cc1F)C1(CO2)C(=O)N(CC2CCCO2)c2ccccc21 (stereo not given) |
| 228 to 232 | O=c1[nH]c2ccccc2cc1-c1csc(N(Cc2ccccc2)S(=O)(=O)c2ccccc2)n1 |
| 130 to 131 | CCOC(=O)C(C)(C(=O)OCC)c1cc(=O)n(Cc2ccccc2)c2ccccc12 |
| 130 | COc1ccc(C(=O)Nc2ccc3ccc(SC)nc3n2)cc1 |
| 84 | COC(=O)C(=O)NCCc1ccc(OCc2ccccc2)c(OCc2ccccc2)c1 |
